From patent US5861396A, “Purin-6-one derivatives” (Bayer Aktiengesellschaft, priority 1995, dated 1999) come the findings set out here.

One assay relates to PDE V (c-GMP-specific). As to the kind of experiment: Inhibition of the phosphodiesterases in vitro: PDE V. The class given is biochemical. As to conditions: nucleotide 10^-6 mol/l, pH 7.5, 30 min; or [^3H] cGMP SPA assay. As for the experimental part: (§1) The c-GMP-stimulable PDE II, the c-GMP-inhibitable PDE III and the cAMP-specific PDE IV were isolated either from porcine or bovine myocardium. The Ca^2+ calmodulin-stimulable PDE I was isolated from porcine aorta, porcine brain or preferably from bovine aorta The c-GMP-specific PDE V was obtained from porcine small intestine, porcine aorta, human blood platelets and preferably from bovine aorta. Purification was carried out by anion exchange chromatography on Mono® Pharmacia essentially according to the method of M. Hoey and Miles D. Houslay, Biochemical Pharmacology, Vol. 40, 193-202 (1990) and C. Lugman et al., Biochemical Pharmacology Vol. 35, 1743-1751 (1986).
(§2) The enzyme activity was determined in a test mixture of 100 μl in 20 mM tris/HCl buffer ph 7.5 which contains 5 MM MgCl2, 0.1 mg/ml of bovine serum albumin and either 800 Bq of ^3 HcAMP or ^3 HcGMP. The final concentration of the corresponding nucleotides is 10^-6 mol/l. The reaction is started by addition of the enzyme; the amount of enzyme is proportioned such that during the incubation time of 30 min about 50% of the substrate is reacted. In order to test the cGMP-stimulable PDE II, ^3 HcAMP is used as a substrate and 10^-6 mol/l of unlabelled cGMP is added to the mixture. In order to test the Ca calmodulin-dependent PDE I, additionally CaCl2, 1 μM and calmodulin, 0.1 μM are added to the reaction mixture. The reaction is stopped by addition of 100 μl of acetonitrile which contains 1 mM cAMP and 1 mM AMP. 100 μl of the reaction mixture are separated on an HPLC and the cleavage products are quantitatively determined "on-line" using a flow scintillation counter. The substance concentration is measured at which the reaction rate is decreased by 50%. Additionally, the "phosphodiesterase [3H] cAMP-SPA enzyme assay" and the "phosphodiesterase [^3 H] cGMP-SPA enzyme assay" from Amersham Life Science were used for testing. The test was carried out according to the experimental protocol indicated by the manufacturer. For activity determination of the PDE2, the [^3 H] cAMP SPA assay was used, 10^-6 M cGMP being added to the reaction mixture to activate the enzyme. For the measurement of PDE1, calmodulin, 10^-7 M and CaCl2, 1 μM were added to the reaction mixture. The PDE5 was measured using the [^3 H] cGMP SPA assay.

Assay [1] deals with PDE II (c-GMP-stimulable). As to the kind of experiment: Inhibition of the phosphodiesterases in vitro: PDE II. The class given is biochemical, porcine or bovine (myocardium). As to conditions: ^3H cAMP substrate, 10^-6 mol/l unlabelled cGMP added; pH 7.5; 30 min. The protocol: as §1, §2
Assay [2] concerns PDE I (Ca^2+ calmodulin-stimulable). Description: Inhibition of the phosphodiesterases in vitro: PDE I. The class given is biochemical, porcine aorta, porcine brain or preferably bovine aorta. The settings on record: CaCl2 1 μM and calmodulin 0.1 μM added; nucleotide 10^-6 mol/l; pH 7.5; 30 min. As for the experimental part:
as §1, §2

Structures are written as SMILES.

Turning to `CC(O)C(CCCc1ccccc1)n1cnc2c(=O)[nH]c(Cc3ccc(NC(=O)C4CCN(C(=O)OCc5ccccc5)CC4)cc3)nc21` (stereo not drawn) [Example 121], the half-inhibitory concentration (IC50) in the assay with PDE V (c-GMP-specific) is 1000 nM; in assay [1], 3 nM; in assay [2], 500 nM.
For `CCOC(=O)N1CCC(C(=O)Nc2ccc(Cc3nc4c(ncn4C(CCCc4ccccc4)C(C)O)c(=O)[nH]3)cc2)CC1` (stereo not drawn) [Example 122] the same measures were 1000 nM, 4 nM and 500 nM.
For `COc1ccc(Cc2nc3c(ncn3C(CCCc3ccccc3)C(C)=O)c(=O)[nH]2)cc1OC` (stereo not drawn) [Example 100] the same measures were 1000 nM, 4 nM and 1000 nM.
For `CC(O)C(CCCc1ccccc1)n1cnc2c(=O)[nH]c(Cc3ccc(Cl)c(Cl)c3)nc21` (stereo not drawn) [Example 34] the same measures were 500 nM, 20 nM and about 500 nM.
As for `CC(O)C(CCCc1ccccc1)n1cnc2c(=O)[nH]c(Cc3ccc(F)cc3)nc21` (stereo not drawn) [Example 69], the IC50 in the assay on PDE V (c-GMP-specific) amounted to 500 nM; in assay [1], 60 nM; in assay [2], 3000 nM.
For `CC(CCCc1ccccc1)n1cnc2c(=O)[nH]c(Cc3ccccc3)nc21` (stereo not drawn) [Example 1] the same measures were 300 nM, 200 nM and 500 nM.
Consider `CC(CCCc1ccccc1)n1cnc2c(=O)[nH]c(Cc3ccc(-c4ccc(F)cc4)cc3)nc21` (stereo not drawn) [Example 80], for which the IC50 with PDE V (c-GMP-specific) was 1000 nM; in assay [1] it was 80 nM; in assay [2] it was 100 nM.
`COc1ccc(Cc2nc3c(ncn3C(CCCc3ccccc3)C(C)O)c(=O)[nH]2)cc1S(=O)(=O)N1CCC(C(=O)O)CC1` (stereo not drawn) [Example 138]: the IC50 is 500 nM with PDE V (c-GMP-specific), 1 nM in assay [1] and 500 nM in assay [2].
For the compound `CC(CCCc1ccccc1)n1cnc2c(=O)[nH]c(Cc3ccc(-c4cccc(N)c4)cc3)nc21` (stereo not drawn) [Example 82], the results for the IC50 (with PDE V (c-GMP-specific); in assay [1]; in assay [2]) were 500 nM, 20 nM and 100 nM, respectively.
For `CC(CCCc1ccccc1)n1cnc2c(=O)[nH]c(Cc3ccc(-c4cccnc4)cc3)nc21` (stereo not drawn) [Example 84] the same measures were 1000 nM, 20 nM and 100 nM.
For `CC(CCCc1ccccc1)n1cnc2c(=O)[nH]c(Cc3ccc(-c4ccsc4)cc3)nc21` (stereo not drawn) [Example 83], the IC50 in the assay on PDE V (c-GMP-specific) stood at 500 nM; in assay [1], 20 nM; in assay [2], 300 nM.
For `CC(O)C(CCCc1ccccc1)n1cnc2c(=O)[nH]c(Cc3ccccc3)nc21` (stereo not drawn) [Example 33], the results for the IC50 (in the assay on PDE V (c-GMP-specific); in assay [1]; in assay [2]) were 800 nM, 100 nM and 3000 nM, respectively.

A word on the IC50: it is the concentration needed to halve the response being measured. A higher IC50 goes with weaker potency in that assay.
